# Read-outs that look alike come from different tables or passages of the source.
# How the values were obtained:
# [1] = biological target: T1, full-length HCV NS3 protein fused to eGFP (UniProt P27958+Q96SW2); assay: Transient cellular HCV NS3 degradation assay; assay type: cell-based, Hepatitis C virus; conditions: for degradation of HCV NS3 by Western blot: 4-hour and 24-hour treatments, NS3-eGFP and NS3-eGFP-mCherry fusion proteins; for DC50: read-out: IC50, concentration that led to a 50% reduction in NS3-eGFP accumulation, flow cytometry; for DC50 / degradation of transiently expressed HCV NS3 (decrease in NS3-eGFP abundance): 4 hour treatment; for degradation of transiently expressed HCV NS3 (decrease in NS3-eGFP abundance): increasing concentrations
# T1 construct: expressing the full-length HCV NS3 protein fused to eGFP; mCherry via FMVD 2A self-cleavage linker (C, cleaved yes); expressed in transfected cells
# Description: A system was set up to monitor NS3 degradation in the absence of other processes of the infectious viral cycle. […] Expressed in the absence of its cofactor, NS4A, the NS3 protein lacks any enzymatic activity, and the abundance of the NS3-eGFP fusion protein can be reliably monitored by eGFP fluorescence. Since the mCherry portion of the fusion protein is cleaved off during translation, its abundance in cells is not affected by small molecule-induced degradation of NS3-eGFP, and thus it serves as a control for protein expression. […]
# The NS3 expressing cells were treated with increasing concentrations of compounds 13 and 22 for 4 hours. […] Compound 11 is an alpha-hydroxylamide analog of compound 13 that cannot form a covalent bond with the catalytic serine of the HCV NS3/4A protease due to a modification of the α-ketoamide group. […] The NS3 expressing cells were treated with increasing concentrations of compounds for 4 hours.
# [2] = tested on: HCV subgenomic replicon in Huh7.5 cells; assay: Antiviral subgenomic replicon assay; assay type: cell-based; conditions: Hepatitis C virus, read-out: IC50, 50% reduction in reporter (luciferase) expression levels
# Description: (§1) The antiviral activity of the degraders was evaluated in cell culture in a subgenomic replicon assay and an infectious assay. In the subgenomic replicon assay, the hepatoma cell line Huh7.5 was transfected with a HCV subgenomic replicon and treated with small molecules. The luciferase activity encoded by the subgenomic replicon served as a measure for viral replication. In the infectious assay, Huh7.5 cells were infected with HCV, and treated with small molecules. The amount of infectious virus released to the supernatants after treatment with the small molecule degraders served as a measure for their antiviral activity. […] The activity of the compounds described herein is dependent on protein degradation mediated by the cereblon E3 ligase, as HCV NS3 levels are partially rescued in the cereblon-deficient Huh7.5 cell line.
# Huh7.5 cells were electroporated with the HCV subgenomic replicon and treated after 24 hours with a range of small molecule concentrations. The luciferase activity encoded by the replicon was measured in cells at 48 hours post-electroporation/24 hours post-treatment. The concentration of compound that led to a 50% reduction in reporter expression levels (IC50) was determined by non-linear regression.
# HCV NS3 fusion protein = biological target: T2, HCV NS3 fusion protein (UniProt P27958+Q96SW2); assay: NS3 degradation competition assay with lenalidomide; assay type: cell-based, Hepatitis C virus; conditions: Western blot; for effect of lenalidomide on compound-induced degradation of NS3: excess of cereblon ligand lenalidomide
# T2 construct: expressing the full-length HCV NS3 protein fused to eGFP; mCherry via FMVD 2A self-cleavage linker (C, cleaved yes); expressed in transfected cells
# Description: The expression of the NS3 fusion protein was induced prior to the treatment of the NS3 expressing cells with an excess of the cereblon ligand lenalidomide.
# FIG. 3 is a photograph of a Western blot showing degradation of HCV NS3 in the absence and presence of lenalidomide.
# HCV in Huh7.5 cells = assay: Antiviral infectious assay (TCID50); assay type: cell-based, Hepatitis C virus; conditions: for IC50: Hepatitis C virus, read-out: IC50, 50% reduction in viral titers
# Description: as §1
# Huh7.5 cells were infected with HCV and treated after 24 hours with a range of small molecule concentrations. The amount of infectious virus released to the supernatants at 48 hours post-infection/24 hours post-treatment was measured using a 50% tissue infectious dose (TCID50) assay. The concentration of compound that led to a 50% reduction in viral titers (IC50) was determined by non-linear regression.
# HCV(NS3-A156S) = assay: Viral resistance assay, HCV(NS3-A156S); assay type: cell-based, Hepatitis C virus
# Description: (§2) Mutations A156S and V55A, two well-characterized resistance mutations that are located in the active site of the HCV NS3 protease where telaprevir binds, were selected. Infectious HCV clones bearing the NS3-V55A mutation or the NS3-A156S mutation were generated.
# (§3) Huh7.5 cells were infected with wildtype HCV, or the telaprevir-resistant mutant viruses, HCV(NS3-V55A) and HCV(NS3-A156S). Cells were treated 24 hours after infection with a range of small molecule concentrations. The amount of infectious virus released to the supernatants at 48 hours post-infection/24 hours post-treatment was measured using a 50% tissue infectious dose (TCID50) assay. The concentration of compound that led to a 50% reduction in viral titers (IC50) was determined by non-linear regression.
# wildtype HCV = assay: Viral resistance assay, wildtype HCV; assay type: cell-based; conditions: Hepatitis C virus, Huh7.5, read-out: IC50, 50% reduction in viral titers
# Description: as §2, §3
# HCV(NS3-V55A) = assay: Viral resistance assay, HCV(NS3-V55A); assay type: cell-based, Hepatitis C virus
# Description: as §2, §3
# [3] = Huh7.5 cells, 48 hours post-electroporation/24 hours post-treatment
# [4] = Huh7.5 cells, 48 hours post-infection/24 hours post-treatment, TCID50
structure (smiles),measurement,setting,value
"CCC[C@H](NC(=O)[C@@H]1[C@H]2CCC[C@H]2CN1C(=O)[C@@H](NC(=O)[C@@H](NC(=O)c1cnc(C(=O)NCCCCCCNc2cccc3c2CN(C2CCC(=O)NC2=O)C3=O)cn1)C1CCCCC1)C(C)(C)C)C(=O)C(=O)NC1CC1 (stereo partly drawn) [Compound 1, N2-((S)-1-cyclohexyl-2-((S)-1-((1S,3aR,6aS)-1-((S)-1-(cyclopropylamino)-1,2-dioxohexan-3-ylcarbamoyl)hexahydrocyclopenta[c]pyrrol-2(1H)-yl)-3,3-dimethyl-1-oxobutan-2-ylamino)-2-oxoethyl)-N5-(6-(2-(2,6-dioxopiperidin-3-yl)-1-oxoisoindolin-4-ylamino)hexyl)pyrazine-2,5-dicarboxamide]",degradation of HCV NS3 by Western blot,[1],specific reduction in steady-state abundance
same,DC50,[1],669 nM
same,IC50,"[2]; Huh7.5, 48 h",3040 nM
same,effect of lenalidomide on compound-induced degradation of NS3,HCV NS3 fusion protein,Lenalidomide inhibited degradation of NS3
"CCC[C@H](NC(=O)[C@@H]1[C@H]2CCC[C@H]2CN1C(=O)[C@@H](NC(=O)[C@@H](NC(=O)c1cnc(C(=O)NCCOCCOCCNc2cccc3c2C(=O)N(C2CCC(=O)NC2=O)C3=O)cn1)C1CCCCC1)C(C)(C)C)C(=O)C(=O)NC1CC1 (stereo partly drawn) [Compound 3, N2-((S)-1-cyclohexyl-2-((S)-1-((1S,3aR,6aS)-1-((S)-1-(cyclopropylamino)-1,2-dioxohexan-3-ylcarbamoyl)hexahydrocyclopenta[c]pyrrol-2(1H)-yl)-3,3-dimethyl-1-oxobutan-2-ylamino)-2-oxoethyl)-N5-(2-(2-(2-(2-(2,6-dioxopiperidin-3-yl)-1,3-dioxoisoindolin-4-ylamino)ethoxy)ethoxy)ethyl)pyrazine-2,5-dicarboxamide]",degradation of HCV NS3 by Western blot,[1],specific reduction in steady-state abundance
same,IC50,[2]; [3],2620 nM
same,effect of lenalidomide on compound-induced degradation of NS3,HCV NS3 fusion protein,Lenalidomide inhibited degradation of NS3
same,IC50,HCV in Huh7.5 cells; [4],2920 nM
"CCC[C@H](NC(=O)[C@@H]1[C@H]2CCC[C@H]2CN1C(=O)[C@@H](NC(=O)[C@@H](NC(=O)c1cnc(C(=O)NCCCCCCCC(=O)Nc2cccc3c2CN(C2CCC(=O)NC2=O)C3=O)cn1)C1CCCCC1)C(C)(C)C)C(=O)C(=O)NC1CC1 (stereo partly drawn) [Compound 4, N2-((S)-1-cyclohexyl-2-((S)-1-((1S,3aR,6aS)-1-((S)-1-(cyclopropylamino)-1,2-dioxohexan-3-ylcarbamoyl)hexahydrocyclopenta[c]pyrrol-2(1H)-yl)-3,3-dimethyl-1-oxobutan-2-ylamino)-2-oxoethyl)-N5-(8-(2-(2,6-dioxopiperidin-3-yl)-1-oxoisoindolin-4-ylamino)-8-oxooctyl)pyrazine-2,5-dicarboxamide]",degradation of HCV NS3 by Western blot,[1],specific reduction in steady-state abundance
same,DC50,[1],2680 nM
same,IC50,[2]; [3],1320 nM
same,effect of lenalidomide on compound-induced degradation of NS3,HCV NS3 fusion protein,Lenalidomide inhibited degradation of NS3
"CCC[C@H](NC(=O)[C@@H]1[C@H]2CCC[C@H]2CN1C(=O)[C@@H](NC(=O)[C@@H](NC(=O)c1cnc(C(=O)NCCOCCOCCNc2cccc3c2C(=O)N(C2CCC(=O)NC2=O)C3=O)cn1)C1CCCCC1)C(C)(C)C)C(O)C(=O)NC1CC1 (stereo partly drawn) [Compound 11, N2-((1S)-1-cyclohexyl-2-((2S)-1-((1S,3aR,6aS)-1-((3S)-1-(cyclopropylamino)-2-hydroxy-1-oxohexan-3-ylcarbamoyl)hexahydrocyclopenta[c]pyrrol-2(1H)-yl)-3,3-dimethyl-1-oxobutan-2-ylamino)-2-oxoethyl)-N5-(2-(2-(2-(2-(2,6-dioxopiperidin-3-yl)-1,3-dioxoisoindolin-4-ylamino)ethoxy)ethoxy)ethyl)pyrazine-2,5-dicarboxamide]",degradation of transiently expressed HCV NS3 (decrease in NS3-eGFP abundance),[1],did not mediate degradation
"CCC[C@H](NC(=O)[C@@H]1[C@H]2CCC[C@H]2CN1C(=O)[C@@H](NC(=O)[C@@H](NC(=O)c1cnc(C(=O)NCCOCCOCCOc2cc3c4c(cccc4c2)C(=O)N(C2CCC(=O)NC2=O)C3=O)cn1)C1CCCCC1)C(C)(C)C)C(=O)C(=O)NC1CC1 (stereo partly drawn) [Compound 13, N2-((S)-1-cyclohexyl-2-((S)-1-((1S,3aR,6aS)-1-((S)-1-(cyclopropylamino)-1,2-dioxohexan-3-ylcarbamoyl)hexahydrocyclopenta[c]pyrrol-2(1H)-yl)-3,3-dimethyl-1-oxobutan-2-ylamino)-2-oxoethyl)-N5-(2-(2-(2-(2-(2,6-dioxopiperidin-3-yl)-1,3-dioxo-2,3-dihydro-1H-benzo[de]isoquinolin-5-yloxy)ethoxy)ethoxy)ethyl)pyrazine-2,5-dicarboxamide]",DC50,[1],50 nM
same,"change in antiviral potency, NS3-A156S vs wildtype",HCV(NS3-A156S),3 fold
same,IC50,"HCV(NS3-A156S); read-out: IC50, 50% reduction in viral titers, HCV(NS3-A156S), Huh7.5, TCID50",1560 nM
same,effect of lenalidomide on compound-induced degradation of NS3,HCV NS3 fusion protein,Lenalidomide inhibited degradation of NS3
same,IC50,HCV in Huh7.5 cells; [4],744 nM
same,antiviral activity compared with telaprevir,"HCV in Huh7.5 cells; subgenomic replicon and infectious assays, Huh7.5",antiviral potency close to that of the parental compound
same,IC50,wildtype HCV,522 nM
same,IC50,"HCV(NS3-V55A); read-out: IC50, 50% reduction in viral titers, HCV(NS3-V55A), Huh7.5, TCID50",508 nM
CCC[C@H](NC(=O)[C@@H]1[C@H]2CCC[C@H]2CN1C(=O)[C@@H](NC(=O)[C@@H](NC(=O)c1cnc(C(=O)NCCOCCOCCNc2cccc3c2C(=O)N(C2CCC(=O)N(C)C2=O)C3=O)cn1)C1CCCCC1)C(C)(C)C)C(=O)C(=O)NC1CC1 (stereo partly shown) [Compound 20],degradation of NS3 in the presence or absence of lenalidomide,HCV NS3 fusion protein,no significant degradation of NS3
"CCC[C@H](NC(=O)[C@@H]1[C@H]2CCC[C@H]2CN1C(=O)[C@@H](NC(=O)[C@@H](NC(=O)c1cnc(C(=O)NCCOCCOCCOc2cc3c4c(cccc4c2)C(=O)N(C2CCC(=O)N(C)C2=O)C3=O)cn1)C1CCCCC1)C(C)(C)C)C(=O)C(=O)NC1CC1 (stereo partly drawn) [Compound 22, N2-((S)-1-cyclohexyl-2-((S)-1-((1S,3aR,6aS)-1-((S)-1-(cyclopropylamino)-1,2-dioxohexan-3-ylcarbamoyl)hexahydrocyclopenta[c]pyrrol-2(1H)-yl)-3,3-dimethyl-1-oxobutan-2-ylamino)-2-oxoethyl)-N5-(2-(2-(2-(2-(1-methyl-2,6-dioxopiperidin-3-yl)-1,3-dioxo-2,3-dihydro-1H-benzo[de]isoquinolin-5-yloxy)ethoxy)ethoxy)ethyl)pyrazine-2,5-dicarboxamide]",degradation of transiently expressed HCV NS3 (decrease in NS3-eGFP abundance),[1],did not degrade HCV NS3
same,binding to cereblon (concluded from degradation assay),[1]; N-methylated glutarimide negative controls,unable to bind cereblon
same,degradation of NS3 in the presence or absence of lenalidomide,HCV NS3 fusion protein,no significant degradation of NS3
"CCC[C@H](NC(=O)[C@@H]1[C@H]2CCC[C@H]2CN1C(=O)[C@@H](NC(=O)[C@@H](NC(=O)c1cnccn1)C1CCCCC1)C(C)(C)C)C(=O)C(=O)NC1CC1 [telaprevir, reference compound]",degradation of transiently expressed HCV NS3 (decrease in NS3-eGFP abundance),[1],not observed
same,IC50,"[2]; Huh7.5, 48 h",240 nM
same,"change in antiviral potency, NS3-A156S vs wildtype",HCV(NS3-A156S),10 fold
same,IC50,"HCV in Huh7.5 cells; Huh7.5, 48 h",138 nM
same,IC50,wildtype HCV,98 nM
same,"change in antiviral potency, NS3-V55A vs wildtype",HCV(NS3-V55A),3 fold
